A short description of this series: Heating/drying of the solid form, rechecked by XRPD and DSC. The format is physicochemical. As to conditions: for Solid form after heating (XRPD, DSC): heated to 160° C. under vacuum, 5 minutes. Here is the method: Details of XRPD method used in the tests are mentioned below:
Details of DSC method used in the tests are mentioned below:
Heat from 30° C. to 350° C. at 10° C./min
Form II was further dried by heating (e.g. 60° C. for 1 h) after being checked by XRPD, DSC, TGA and NMR. The XRPD and DSC of Form II were rechecked following the dehydration process.
Form III was further dried at 120° C. after being checked by XRPD, DSC, TGA and NMR. The XRPD and DSC were rechecked.
Amorphous deferasirox was heated to 160° C. under vacuum and kept at this temperature for 5 min. The formed crystal was rechecked by XRPD and DSC.

In the case of `O=C(O)c1ccc(-n2nc(-c3ccccc3O)nc2-c2ccccc2O)cc1` [Form V, 4-[3,5-Bis(2-hydroxyphenyl)-1H-1,2,4-triazol-1-yl]benzoic acid], the “Solid form after heating/drying (XRPD, DSC)” value (dried at 120° C. for 1 hr, vacuum) is on record as “converted to Form I”.
With `O=C(O)c1ccc(-n2nc(-c3ccccc3O)nc2-c2ccccc2O)cc1` [Form II, 4-[3,5-Bis(2-hydroxyphenyl)-1H-1,2,4-triazol-1-yl]benzoic acid], under “heated to 60° C. for 1 hr”, the “Solid form after heating/drying (XRPD, DSC)” value is “converted to Form I”.
With `O=C(O)c1ccc(-n2nc(-c3ccccc3O)nc2-c2ccccc2O)cc1` [amorphous deferasirox, 4-[3,5-Bis(2-hydroxyphenyl)-1H-1,2,4-triazol-1-yl]benzoic acid], the “Solid form after heating (XRPD, DSC)” value is given as “converted to Form I”. For the setting “listed as Amorphous”, the “Solid form after heating (XRPD, DSC)” value was “transformed into Form I”.

These data come from patent US8772503B2, “Processes for the preparation of deferasirox, and deferasirox polymorphs” (Mapi Pharma Ltd., priority 2009, dated 2014).
